The target of test [1] is T1, Coagulation factor XI (Homo sapiens, UniProt P03951). The test can be described thus: Inhibition of factor 11a at 300 uM.
For test [2], the target named is T2, Prothrombin (Homo sapiens, UniProt P00734). The test can be described thus: Inhibition of factor 2a at 300 uM.
In test [3] the target is T3, Vitamin K-dependent protein C (Homo sapiens, UniProt P04070). The test can be described thus: Inhibition of activated protein C at 300 uM.
Test [4] has as its target Trypsin (Homo sapiens, UniProt P07477+P07478+P35030). The test can be described thus: Inhibition of human trypsin. Type of test: protein assay.
For test [5], the target named is Coagulation factor IX (Homo sapiens) (UniProt P00740). The test can be described thus: Inhibition of factor 9a at 300 uM.
Coagulation factor IX (Homo sapiens), sequence (P00740 47-191 limits assumed): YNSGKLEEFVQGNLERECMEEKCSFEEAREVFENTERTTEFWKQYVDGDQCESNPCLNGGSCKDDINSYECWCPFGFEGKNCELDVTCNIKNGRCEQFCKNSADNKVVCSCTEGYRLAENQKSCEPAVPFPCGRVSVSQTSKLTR
Coagulation factor IX (Homo sapiens), sequence (P00740 227-461 limits assumed): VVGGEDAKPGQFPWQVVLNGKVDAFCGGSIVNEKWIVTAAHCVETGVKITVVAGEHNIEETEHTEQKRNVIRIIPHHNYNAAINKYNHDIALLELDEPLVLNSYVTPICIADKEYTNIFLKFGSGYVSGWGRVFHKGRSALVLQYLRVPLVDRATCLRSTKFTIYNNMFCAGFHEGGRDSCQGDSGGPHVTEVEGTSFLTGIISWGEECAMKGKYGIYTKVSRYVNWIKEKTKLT
Test [6] concerns the target T1, Coagulation factor XI. The test can be described thus: Inhibition of factor 11a.
Test [7] deals with T3, Vitamin K-dependent protein C. In words: Inhibition of activated protein C.
In test [8] the target is T2, Prothrombin. In words: Inhibition of factor 2a.

Active and inactive are the calls of the source. The calls are words filed in the database; no cut-off is given here.

T3 sequence (P04070 43-197 limits assumed): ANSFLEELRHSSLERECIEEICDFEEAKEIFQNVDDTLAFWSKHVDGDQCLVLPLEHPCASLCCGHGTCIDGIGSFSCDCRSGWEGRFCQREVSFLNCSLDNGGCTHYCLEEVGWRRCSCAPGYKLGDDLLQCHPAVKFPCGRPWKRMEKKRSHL
T3 sequence (P04070 212-461 limits assumed): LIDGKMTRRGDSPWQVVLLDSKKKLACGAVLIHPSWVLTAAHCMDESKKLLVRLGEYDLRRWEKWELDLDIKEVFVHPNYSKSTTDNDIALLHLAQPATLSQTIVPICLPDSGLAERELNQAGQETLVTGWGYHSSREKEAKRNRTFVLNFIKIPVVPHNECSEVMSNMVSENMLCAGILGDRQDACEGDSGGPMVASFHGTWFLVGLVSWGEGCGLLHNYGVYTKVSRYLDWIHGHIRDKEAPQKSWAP
T1 sequence (P03951 19-387 limits assumed): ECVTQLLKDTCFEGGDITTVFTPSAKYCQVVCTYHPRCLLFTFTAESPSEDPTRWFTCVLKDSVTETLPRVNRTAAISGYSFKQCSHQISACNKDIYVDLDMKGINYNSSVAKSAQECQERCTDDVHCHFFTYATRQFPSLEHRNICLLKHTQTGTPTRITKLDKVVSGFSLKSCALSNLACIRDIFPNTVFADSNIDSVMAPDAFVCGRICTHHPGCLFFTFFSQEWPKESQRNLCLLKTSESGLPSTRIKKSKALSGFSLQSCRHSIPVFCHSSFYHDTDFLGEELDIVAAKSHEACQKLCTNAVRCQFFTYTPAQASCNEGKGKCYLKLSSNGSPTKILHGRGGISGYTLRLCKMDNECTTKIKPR
T1 sequence (P03951 388-625 limits assumed): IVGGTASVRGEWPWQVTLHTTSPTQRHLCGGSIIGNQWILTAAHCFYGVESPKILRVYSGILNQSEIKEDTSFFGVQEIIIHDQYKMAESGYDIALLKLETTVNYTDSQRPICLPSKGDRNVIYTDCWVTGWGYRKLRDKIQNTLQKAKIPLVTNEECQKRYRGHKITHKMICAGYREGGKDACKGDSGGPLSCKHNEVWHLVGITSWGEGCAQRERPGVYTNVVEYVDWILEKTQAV

The term IC50 denotes the concentration that gives 50% inhibition. On to `C=CCCS(=O)(=O)N[C@@H](C(=O)N[C@@H](CC(C)C)C(=O)NCc1c(CC=C)[nH]c2ccc(Cl)cc12)C1CCCCC1`, for which the inhibition result in test [1], in test [2] and in test [3] was “inactive” throughout. In test [4], this compound had a half-maximal inhibitory concentration (IC50) of 1.16 µM. In addition, the Kic in test [4] was 0.142 µM.
For `CC(C)C[C@@H]1NC(=O)[C@@H](C2CCCCC2)NC(=O)CC/C=C/Cc2[nH]c3ccc(Cl)cc3c2CNC1=O`, the inhibition result in test [5] is “inactive”.
Consider `CC(C)C[C@@H]1NC(=O)[C@@H](C2CCCCC2)NC(=O)[C@H](c2ccccc2)CCCCc2[nH]c3ccc(Cl)cc3c2CNC1=O`, for which the inhibition entry in test [1], in test [2] and in test [3] was “inactive” in each case. Besides, the IC50 in test [4] turned out to be 2.31 µM. This compound returned a Kic in test [4] of 0.281 µM.
Consider `C=CCc1[nH]c2ccc(Cl)cc2c1CNC(=O)[C@H](CC(C)C)NC(=O)[C@H](NC(=O)[C@@H](CC=C)c1ccccc1)C1CCCCC1`, for which the concentration for half-maximal inhibition (IC50) in test [6] is 146 µM; in test [7] it was 103 µM; in test [4], 0.16 µM. Moreover, the Kic in test [6] worked out at 73 µM; in test [7], 82.8 µM; in test [4] it was 0.02 µM. For the same compound, the inhibition result in test [2] is “inactive”.
With `C=CCCC(=O)N[C@@H](C(=O)N[C@@H](CC(C)C)C(=O)NCc1c(CC=C)[nH]c2ccc(Cl)cc12)C1CCCCC1`, the IC50 in test [6] worked out at 103 µM; in test [7], 284 µM; in test [4], 2.17 µM. Further, the values for the Kic in test [6], in test [7] and in test [4] were 51.6 µM, 227 µM and 0.264 µM, respectively. Moreover, the inhibition entry in test [2] was “inactive”.
For `CC(C)C[C@@H]1NC(=O)[C@@H](C2CCCCC2)NS(=O)(=O)CCCCCc2[nH]c3ccc(Cl)cc3c2CNC1=O`, the values for the half-inhibitory concentration (IC50) in test [6] and in test [4] were 176 µM and 2.43 µM, respectively. Also, the Kic in test [6] was found to be 87.9 µM; in test [4] it was 0.296 µM. The inhibition entry in test [2] and in test [3] was “inactive” throughout.
Take `CC(C)C[C@@H]1NC(=O)[C@@H](C2CCCCC2)NC(=O)[C@H](c2ccccc2)C/C=C/Cc2[nH]c3ccc(Cl)cc3c2CNC1=O`: the IC50 in test [6] turned out to be 136 µM; in test [7], 145 µM; in test [4], 0.26 µM. For the same compound, the inhibition result in test [2] was “inactive”. Besides, the Kic in test [7] was found to be 116 µM; in test [4], 0.031 µM.
`CO[C@H](COS(=O)(=O)[O-])C(=O)N[C@@H](C(=O)N1[C@H](C(=O)NCCC2=CC[N+](=C(N)N)C2)C[C@@H]2C[C@H](O)[C@@H](O)C[C@@H]21)[C@H](Cl)C(C)C` [CHLORODYSINOSIN A] registered a half-inhibitory concentration (IC50) in test [8] of 0.0057 µM.
The same measure, in the same setting: with `NC(N)=NCCC[C@@H]1NC(=O)[C@@H]2CCCN2C(=O)[C@@H](NC=O)CNC(=O)/C=C/[C@H](Cc2ccc(O)cc2)NC(=O)[C@@H](Cc2ccccc2)NC(=O)C1=O` [CYCLOTHEONAMIDE A] the figure was 0.0015 µM.
Consider `CC(C)C[C@@H]1NC(=O)[C@@H](C2CCCCC2)NC(=O)CCCCCc2[nH]c3ccc(Cl)cc3c2CNC1=O`, for which, in test [1], the inhibition result is “inactive”. Also, the IC50 in test [8] is 10.6 µM; in test [7], 395 µM; in test [4], 10 µM. Further, the figures for the Kic in test [8], in test [7] and in test [4] were 1.7 µM, 316 µM and 1.22 µM, respectively.
For the compound `CC(C)C[C@@H]1NC(=O)[C@@H](C2CCCCC2)NS(=O)(=O)CC/C=C/Cc2[nH]c3ccc(Cl)cc3c2CNC1=O`, the results for the half-inhibitory concentration (IC50) in test [6], in test [8] and in test [4] were 768 µM, 67.9 µM and 2.69 µM, respectively. The Kic turned out to be 384 µM in test [6], 10.6 µM in test [8] and 0.328 µM in test [4]. Further, in test [3], the inhibition entry is “inactive”.
Broadly, the Ki is a measure of affinity in units of concentration, obtained from inhibition or displacement. A high value points to weaker binding. The compound `O=C1Cn2c(Cl)cnc(c2=O)N[C@@H](Cc2ccccc2)CNCCCNCCc2ccc(Cl)cc2CN1` returned a Ki in test [8] of 0.09 nM.
For the compound `CCCCCC(=O)NCC(=O)N[C@H](C(=O)N[C@@H]1C(=O)N[C@@H](CCC(N)=O)C(=O)N[C@H]2CC[C@@H](O)N(C2=O)[C@@H](Cc2ccccc2)C(=O)N(C)[C@@H](Cc2c[nH]c3ccccc23)C(=O)N[C@@H](C(C)C)C(=O)O[C@@H]1C)[C@@H](C)O` [MICROPEPTIN 103], the IC50 in test [8] came to 8.7 µM.

The record behind these values is ChEMBL document CHEMBL1287717, “Design and synthesis of macrocyclic indoles targeting blood coagulation cascade Factor XIa” (Bioorg Med Chem Lett, 2010).
